Reference: patent US8173627B2, “Neuroprotective effect of solubilized UDCA in focal ischemic model” (priority 2004, dated 2012)

Assay: HPLC bile acid analysis of plasma and brain
Assay type: in vivo, rat
Conditions: after UDCA and TUDCA administration
Protocol: Rats were separated into 5 groups, and each received a single injection of vehicle (n=18), 25 mg s-UDCA/Kg (n=9), 100 mg UDCA/Kg (n=18), 400 mg UDCA/kg (n=9), and 400 mg TUDCA/kg (n=9) intravenously immediately after reperfusion.
Blood and brain were collected 1 hour after s-UDCA, TUDCA, or vehicle injection, and were assessed by HPLC for bile acid analysis. Briefly, whole blood was drawn, clotted, and centrifuged and plasma was separated and frozen. After appropriate, humane anesthesia (5% chloral hydrate) and transcardial phosphate buffer perfusion, brains were removed, flash-frozen, and stored at −70° C. Free UDCA concentrations were measured by HPLC (JASCO HPLC Bile Acids Analysis System). Bile acids were assessed by HPLC according to, for example, U.S. patent application Ser. No. 09/778,154 filed Feb. 5, 2001, the full disclosure of which is hereby incorporated by reference.

TUDCA detected in brain as well as blood: not detected
Compound: C[C@H](CCC(=O)NCCS(=O)(=O)O)[C@H]1CC[C@H]2[C@@H]3[C@@H](O)C[C@@H]4C[C@H](O)CC[C@]4(C)[C@H]3CC[C@]12C [TUDCA, tauroursodeoxycholic acid]
